Assays:
[1] = tested on: THP1-Dual™ cells (IRF-Lucia luciferase reporter); test: THP1-Dual™ cell reporter assay; format: cell-based, human
Experimental: Potency of compounds and ADCs was evaluated using the THP1-Dual™ cells (Invivogen PN: thpd-nfis [also referred to as THP1 dual reporter cells]), which contain an IRF-Lucia luciferase reporter. Cells were cultured in RPMI-1640 (Gibco) with 10% heat-inactivated fetal bovine serum, Pen-Strep (100 U/mL-100 […], Gibco), HEPES (10 mM, Gibco)), sodium pyruvate (1 mM, Gibco), MEM non-essential amino acids (1×, Gibco), GlutaMAX (1×, Gibco), and beta-mercaptoethanol (55 μM, Gibco). Cells were plated in a 96-well flat bottom tissue culture-treated clear polystyrene plate (Corning Costar #3596) at ˜100,000 cells per well in 200 μL with the indicated concentration of the compound or ADC. The supernatant was harvested at 24 hours (compounds) or 48 hours (ADC) post plating for the reporter assay, or as indicated. To measure Lucia reporter signal, 10 µL of the supernatant was combined with 40 µL of QUANTI-Luc™ Luminescence assay reagent (Invivogen PN: rep-qlc1) in a 96-well clear flat bottom tissue culture-treated black polystyrene plate (Corning Costar #3603) and read on a Perkin Elmer Envision plate reader.

Renca tumor-bearing mice = test: In vivo cytokine assay, Renca tumor-bearing mice; set-up: species or system mouse; details: for IFNγ in plasma / IL1β in plasma / IL12p70 in plasma / IL-6 in plasma / IL-10 in plasma / IP10 in plasma / MCP-1 in plasma / MIP1α in plasma / MIP1β in plasma: 1.86 mg/kg
Experimental: Cytokines were measured in mouse plasma harvested at 3, 6, 24, or 48 hours after treatment with compounds or ADCs using a Milliplex MAP mouse cytokine/chemokine magnetic bead panel assay kit (MCYTOMAG-70k custom 11-plex kit: MCP1, MIP1a, MIP1(3, TNFα, IFNγ, IL-10, IL-12p70, IL-6, IL-1β, IP10, RANTES) and analyzed using a Luminex™ MAGPIX™ Instrument System. Values that were outside of the standard curve range (<3.2 or […]) were either excluded from calculation of the mean values or, when indicated, converted to […] for calculation of the mean values.
Renca cancer cells (ATCC) were cultured in RPMI-1640 (ATCC) with 10% heat-inactivated fetal bovine serum, Pen-Strep (100 U/mL-100 μg/mL), MEM non-essential amino acids (1×), sodium pyruvate (1 mM), and L-glutamine (2 mM). Renca cancer cells were implanted (2*10^6 cells in 200 μL 25% Matrigel) subcutaneously into Balb/c female mice. In some experiments, Renca tumor cells were engineered to express the indicated murine or human target antigen.
(§1) When tumor volumes reached 100 mm^3, the mice were dosed with either compounds or ADCs by intraperitoneal or intravenous injection at the indicated dosing schedule and tumor volumes were monitored twice weekly. Compounds were formulated in 40% PEG400 in saline.
(§2) A syngeneic system was used to assess the ability of the STING agonist ADCs to induce immune responses in vivo and drive an anti-tumor immune response. The Renca system is a subcutaneous, mouse renal adenocarcinoma model. Female Balb/c mice were implanted with 2×10^6 Renca cells subcutaneously in the flank on day 0. When mean tumor size of 100 mm^3 (measured by using the formula Volume (mm^3)=0.5*Length*Width^2 where length is the longer dimension) was reached mice were randomized into treatment groups of ≥5 mice per group. Animals were then treated intraperitoneally (ADCs or compounds) or intravenously (compounds) with the indicated treatment every 7 days, for 3 doses total (or as indicated). Tumor length and width and the weight of the animals was measured throughout the study and tumor volume was calculated using the formula above. Animals were followed until the tumor volume reached ˜1000 mm^3; animals were then euthanized.

Renca cancer cells = test: In vivo anti-tumor activity, Renca tumor model
Experimental: In some experiments, Renca tumor cells were engineered to express the indicated murine or human target antigen.
as §1, §2

[2] = tested on: human CD228-LL2 tumor-bearing mice; test: In vivo cytokine assay, human CD228-LL2 tumor-bearing mice; set-up: species or system mouse
Experimental: Cytokines were measured in mouse plasma harvested at 3, 6, 24, or 48 hours after treatment with compounds or ADCs using a Milliplex MAP mouse cytokine/chemokine magnetic bead panel assay kit (MCYTOMAG-70k custom 11-plex kit: MCP1, MIP1a, MIP1(3, TNFα, IFNγ, IL-10, IL-12p70, IL-6, IL-1β, IP10, RANTES) and analyzed using a Luminex™ MAGPIX™ Instrument System. Values that were outside of the standard curve range (<3.2 or >10,000 μg/mL) were either excluded from calculation of the mean values or, when indicated, converted to 3.2 or 10,000 μg/mL for calculation of the mean values.
LL2 cancer cells were engineered using lentiviral transduction to express human CD228. LL2 cells were cultured in DMEM (ATCC) with 10% heat-inactivated fetal bovine serum. Female C57BL/6 mice were implanted with 1×10^6 hCD228-LL2 tumor cells in 100 μL 25% Matrigel in RPMI 1640 medium subcutaneously. Once tumor volumes reached 100 mm^3, mice were randomized into treatment groups and dosed as indicated. […] Stock concentrations of mAb or conjugates were diluted to a desired concentration (with 20 mM His, 6% Trehalose or 0.01% Tween20 in PBS) and injected intraperitoneally (i.p.) or intravenously (i.v.) as indicated. The small molecule was formulated in 40% PEG400 in saline and injected i.v.

[3] = dose 1, 6 h, 0.08 mg/kg Q7Dx3 i.v.
[4] = dose 1, 6 h, 1.5 mg/kg Q7Dx3 i.v.
[5] = dose 2, 6 h, 0.08 mg/kg Q7Dx3 i.v.
[6] = dose 2, 6 h, 1.5 mg/kg Q7Dx3 i.v.
[7] = dose 3, 6 h, 0.08 mg/kg Q7Dx3 i.v.
[8] = dose 3, 6 h, 1.5 mg/kg Q7Dx3 i.v.

With CCn1nc(C)cc1C(=O)Nc1nc2cc(C(N)=O)cc(OC)c2n1C/C=C/Cn1c(NC(=O)c2cc(C)nn2CC)nc2cc(C(N)=O)cc(OCCCN3CCOCC3)c21.O=C(O)C(F)(F)F.O=C(O)C(F)(F)F.O=C(O)C(F)(F)F [Compound A, (E)-1-(4-(5-carbamoyl-2-(1-ethyl-3-methyl-1H-pyrazole-5-carboxamido)-7-(3-morpholinopropoxy)-1H-benzo[d]imidazol-1-yl)but-2-en-1-yl)-2-(1-ethyl-3-methyl-1H-pyrazole-5-carboxamido)-7-methoxy-1H-benzo[d]imidazole-5-carboxamide tris(2,2,2-trifluoroacetate)] the “relative potency of free drug, Lucia reporter” value ([1]; free drug, 24 h (48 h elsewhere in the source)) was “significantly more potent than (2′, 3′)-Rp,Rpc-diAMPS disodium (Compound B)”, the IFNγ in plasma (Renca tumor-bearing mice; 3 h after treatment) was 0.3 pg/mL and the IL1β in plasma (Renca tumor-bearing mice; 3 h after treatment) was 1.5 pg/mL. For the same compound, the IL12p70 in plasma (Renca tumor-bearing mice; 3 h after treatment) was 0.2 pg/mL, the IL-6 in plasma (Renca tumor-bearing mice; 3 h after treatment) was 3550 pg/mL and the IL-10 in plasma (Renca tumor-bearing mice; 3 h after treatment) was 0.5 pg/mL. For the same compound, the IP10 in plasma (Renca tumor-bearing mice; 3 h after treatment) was 4780 pg/mL, the MCP-1 in plasma (Renca tumor-bearing mice; 3 h after treatment) was 14500 pg/mL and the MIP1α in plasma (Renca tumor-bearing mice; 3 h after treatment) was 1300 pg/mL. It also gave an MIP1β in plasma (Renca tumor-bearing mice; 3 h after treatment) of 6370 pg/mL, an IFNγ in plasma (Renca tumor-bearing mice; 6 h after treatment) of 71.8 pg/mL and an IL1β in plasma (Renca tumor-bearing mice; 6 h after treatment) of 0.6 pg/mL. For the same compound, the IL12p70 in plasma (Renca tumor-bearing mice; 6 h after treatment) was 0.2 pg/mL, the IL-6 in plasma (Renca tumor-bearing mice; 6 h after treatment) was 732 pg/mL and the IL-10 in plasma (Renca tumor-bearing mice; 6 h after treatment) was under 3.2 pg/mL. The IP10 in plasma (Renca tumor-bearing mice; 6 h after treatment) was 4980 pg/mL, the MCP-1 in plasma (Renca tumor-bearing mice; 6 h after treatment) was 10800 pg/mL and the MIP1α in plasma (Renca tumor-bearing mice; 6 h after treatment) was 209 pg/mL. The MIP1β in plasma (Renca tumor-bearing mice; 6 h after treatment) was 2150 pg/mL, the IFNγ in plasma (Renca tumor-bearing mice; 24 h after treatment) was under 3.2 pg/mL and the IL1β in plasma (Renca tumor-bearing mice; 24 h after treatment) was 0.3 pg/mL. For the same compound, the IL12p70 in plasma (Renca tumor-bearing mice; 24 h after treatment) was under 3.2 pg/mL, the IL-6 in plasma (Renca tumor-bearing mice; 24 h after treatment) was 16.4 pg/mL and the IL-10 in plasma (Renca tumor-bearing mice; 24 h after treatment) was under 3.2 pg/mL. It also gave an IP10 in plasma (Renca tumor-bearing mice; 24 h after treatment) of 890 pg/mL, an MCP-1 in plasma (Renca tumor-bearing mice; 24 h after treatment) of 540 pg/mL and an MIP1α in plasma (Renca tumor-bearing mice; 24 h after treatment) of 41.7 pg/mL. The MIP1β in plasma (Renca tumor-bearing mice; 24 h after treatment) was 35.5 pg/mL, the “systemic pro-inflammatory cytokine (IL-6 and TNF) production” value (Renca tumor-bearing mice; plasma) was “induced robust production of IL-6 and TNF” and the “tolerability” value (Renca cancer cells; Renca tumor-bearing mice) was “less well tolerated”. The average weight loss (Renca cancer cells; after the 2nd dose) was 6.2%, the “IFNg, peripheral blood (plasma), mean” value [2, 3] was 9.8 pg/mL and the “IL1b, peripheral blood (plasma), mean” value [2, 3] was 12.1 pg/mL. The “IL-6, peripheral blood (plasma), mean” value [2, 3] was 346.7 pg/mL, the “IL-10, peripheral blood (plasma), mean” value [2, 3] was 15.8 pg/mL and the “IL-12p70, peripheral blood (plasma), mean” value (shortened to “IL-12p70, peripheral blood”) [2, 3] was 3.0 pg/mL. For the same compound, the “IP10, peripheral blood (plasma), mean” value [2, 3] was 7501.0 pg/mL, the “MCP-1, peripheral blood (plasma), mean” value [2, 3] was 3780.5 pg/mL and the “MIP1a, peripheral blood (plasma), mean” value [2, 3] was 107.1 pg/mL. The “MIP1b, peripheral blood (plasma), mean” value [2, 3] was 474.6 pg/mL, the “RANTES, peripheral blood (plasma), mean” value [2, 3] was 33.9 pg/mL and the “TNFa, peripheral blood (plasma), mean” value [2, 3] was 11.0 pg/mL. The “IFNg, peripheral blood (plasma), mean” value [2, 4] was 392.4 pg/mL, the “IL1b, peripheral blood (plasma), mean” value [2, 4] was 38.0 pg/mL and the “IL-6, peripheral blood (plasma), mean” value [2, 4] was 10532.0 pg/mL. The “IL-10, peripheral blood (plasma), mean” value [2, 4] was 71.5 pg/mL, the “IL-12p70, peripheral blood” value [2, 4] was 32.3 pg/mL and the “IP10, peripheral blood (plasma), mean” value [2, 4] was over 10000 pg/mL. For the same compound, the “MCP-1, peripheral blood (plasma), mean” value [2, 4] was 10000.0 pg/mL, the “MIP1a, peripheral blood (plasma), mean” value [2, 4] was 574.2 pg/mL and the “MIP1b, peripheral blood (plasma), mean” value [2, 4] was 4253.1 pg/mL. The “RANTES, peripheral blood (plasma), mean” value [2, 4] was 1705.3 pg/mL, the “TNFa, peripheral blood (plasma), mean” value [2, 4] was 95.7 pg/mL and the “IFNg, peripheral blood (plasma), mean” value [2, 5] was 11.7 pg/mL. The “IL1b, peripheral blood (plasma), mean” value [2, 5] was 26.2 pg/mL, the “IL-6, peripheral blood (plasma), mean” value [2, 5] was 936.6 pg/mL and the “IL-10, peripheral blood (plasma), mean” value [2, 5] was 9.5 pg/mL. The “IL-12p70, peripheral blood” value [2, 5] was 9.7 pg/mL, the “IP10, peripheral blood (plasma), mean” value [2, 5] was 9045.3 pg/mL and the “MCP-1, peripheral blood (plasma), mean” value [2, 5] was 7114.6 pg/mL. The “MIP1a, peripheral blood (plasma), mean” value [2, 5] was 206.0 pg/mL, the “MIP1b, peripheral blood (plasma), mean” value [2, 5] was 1550.3 pg/mL and the “RANTES, peripheral blood (plasma), mean” value [2, 5] was 236.6 pg/mL. The “TNFa, peripheral blood (plasma), mean” value [2, 5] was 18.4 pg/mL, the “IFNg, peripheral blood (plasma), mean” value [2, 6] was 1550.6 pg/mL and the “IL1b, peripheral blood (plasma), mean” value [2, 6] was 57.4 pg/mL. The “IL-6, peripheral blood (plasma), mean” value [2, 6] was 22725.1 pg/mL, the “IL-10, peripheral blood (plasma), mean” value [2, 6] was 92.3 pg/mL and the “IL-12p70, peripheral blood” value [2, 6] was 75.4 pg/mL. For the same compound, the “IP10, peripheral blood (plasma), mean” value [2, 6] was over 10000 pg/mL, the “MCP-1, peripheral blood (plasma), mean” value [2, 6] was over 10000 pg/mL and the “MIP1a, peripheral blood (plasma), mean” value [2, 6] was 846.6 pg/mL. For the same compound, the “MIP1b, peripheral blood (plasma), mean” value [2, 6] was 5235.4 pg/mL, the “RANTES, peripheral blood (plasma), mean” value [2, 6] was 1906.1 pg/mL and the “TNFa, peripheral blood (plasma), mean” value [2, 6] was 204.0 pg/mL. For the same compound, the “IFNg, peripheral blood (plasma), mean” value [2, 7] was 21.9 pg/mL, the “IL1b, peripheral blood (plasma), mean” value [2, 7] was 66.6 pg/mL and the “IL-6, peripheral blood (plasma), mean” value [2, 7] was 1494.7 pg/mL. The “IL-10, peripheral blood (plasma), mean” value [2, 7] was 36.3 pg/mL, the “IL-12p70, peripheral blood” value [2, 7] was 220.3 pg/mL and the “IP10, peripheral blood (plasma), mean” value [2, 7] was 7718.5 pg/mL. For the same compound, the “MCP-1, peripheral blood (plasma), mean” value [2, 7] was 5009.1 pg/mL, the “MIP1a, peripheral blood (plasma), mean” value [2, 7] was 270.0 pg/mL and the “MIP1b, peripheral blood (plasma), mean” value [2, 7] was 1009.6 pg/mL. The “RANTES, peripheral blood (plasma), mean” value [2, 7] was 172.9 pg/mL, the “TNFa, peripheral blood (plasma), mean” value [2, 7] was 29.6 pg/mL and the “IFNg, peripheral blood (plasma), mean” value [2, 8] was 1236.8 pg/mL. The “IL1b, peripheral blood (plasma), mean” value [2, 8] was 36.8 pg/mL, the “IL-6, peripheral blood (plasma), mean” value [2, 8] was 14635.1 pg/mL and the “IL-10, peripheral blood (plasma), mean” value [2, 8] was 62.8 pg/mL. For the same compound, the “IL-12p70, peripheral blood” value [2, 8] was 43.9 pg/mL, the “IP10, peripheral blood (plasma), mean” value [2, 8] was over 10000 pg/mL and the “MCP-1, peripheral blood (plasma), mean” value [2, 8] was over 10000 pg/mL. The “MIP1a, peripheral blood (plasma), mean” value [2, 8] was 743.4 pg/mL, the “MIP1b, peripheral blood (plasma), mean” value [2, 8] was 4517.1 pg/mL and the “RANTES, peripheral blood (plasma), mean” value [2, 8] was 2533.7 pg/mL. For the same compound, the “TNFa, peripheral blood (plasma), mean” value [2, 8] was 195.3 pg/mL.
With CCn1nc(C)cc1C(=O)Nc1nc2cc(C(N)=O)cc(OC)c2n1C/C=C/Cn1c(NC(=O)c2cc(C)nn2C)nc2cc(C(N)=O)cc(OCCC3CN(C(=O)CCN4C(=O)C=CC4=O)C3)c21 [compound 149, (E)-1-(4-(5-carbamoyl-2-(1,3-dimethyl-1H-pyrazole-5-carboxamido)-7-(2-(1-(3-(2,5-dioxo-2,5-dihydro-1H-pyrrol-1-yl)propanoyl)azetidin-3-yl)ethoxy)-1H-benzo[d]imidazol-1-yl)but-2-en-1-yl)-2-(1-ethyl-3-methyl-1H-pyrazole-5-carboxamido)-7-methoxy-1H-benzo[d]imidazole-5-carboxamide] the “EC50, Lucia reporter signal” value ([1]; ADC: drug linker conjugated to targeted mAb, 48 h, some values average of multiple experiments) was >10,000 ng/mL.

Reference: patent publication US20250255981A1, “IMMUNOMODULATORY ANTIBODY-DRUG CONJUGATES” (Seagen Inc., priority 2022, published 2025)
